Measurements reported in US20200164034A1, “METHODS FOR IMPROVING SEX-DIMORPHIC RESPONSES TO TARGETED THERAPY IN MELANOMA” (Board of Regents, The University of Texas System, priority 2018, published 2020).

Legend:
Assay type in all cases: cell-based, human
[1] = system: BRAFV600E melanoma cell lines; assay: Hormonal co-treatment in vitro: proliferative response to DT; conditions: cell culture, co-treatment with dabrafenib 1 μM and trametinib 100 nM
[2] = system: BRAFV600E melanoma cell lines; assay: Hormonal co-treatment in vitro: cell cycle response to DT; conditions: cell culture, co-treatment with dabrafenib 1 μM and trametinib 100 nM
Description: (§1) In parallel, hormonal perturbations were evaluated in vitro using a panel of BRAFV600E melanoma cell lines derived from melanoma patients of the institution.
(§2) Melanoma cell lines derived from tumors of patients treated at UT MD Anderson Cancer Center under the TIL program were obtained from Dr. Chantale Bernatchez and Dr. Scott Woodman. For these studies, n=5 male (2373, 2400, 2650, 2800 and 624-mel) and n=5 female (2153, 2333, 2379, 2508, 2510) lines were selected based on carriage of BRAF^V600E/K mutations and avoidance of prior exposure in vivo to MAPK blockade therapies. Cells were maintained in phenol red-free RPMI-1640 supplemented with 10% heat-inactivated FBS, 1% GlutaMAX and 1% Pencillin/Streptomycin (all Gibco). LNCaP, MCF7 and PC3 cell lines were obtained from institutional stocks and maintained in RPMI-1640 supplemented as above (LNCaP, MCF7) or DMEM/F12 supplemented as above (PC3). All cell lines were confirmed mycoplasma negative using the Lonza MycoALERT kit prior to use, and authenticated by STR profiling via the MD Anderson Characterized Cell Line Core. […]

[3] = system: BRAFV600E melanoma cell lines; assay: Hormonal co-treatment in vitro: apoptosis response to DT; conditions: cell culture, co-treatment with dabrafenib 1 μM and trametinib 100 nM, 72 hours
Description: as §1
as §2, with “(PC3).” for “(PC3). All cell lines were confirmed mycoplasma negative using the Lonza MycoALERT kit prior to use, and authenticated by STR profiling via the MD Anderson Characterized Cell Line Core.”
Cells were plated into 6-well plates at 250,000 cells/well in full growth media and allowed to adhere overnight prior to drug treatment as shown in results in reduced-serum medium (5% FBS, phenol red-free RPMI-1640). […] Data acquisition by flow cytometry was performed within 2 hours of cell harvest and analyzed in FlowJo after gating on cell size, singlets, and applying Curly Quadrant gates to PI vs YO-PRO-1 fluorescence.

CNC(=O)c1ccc(N2C(=S)N(c3ccc(C#N)c(C(F)(F)F)c3)C(=O)C2(C)C)cc1F [enzalutamide]
no significant effects: effect on proliferative response to DT treatment [1] | effect on cell cycle response to DT treatment [2] | effect on apoptosis response to DT treatment [3]

C[C@]12CC[C@H]3[C@@H](CCC4=CC(=O)CC[C@@]43C)[C@@H]1CC[C@@H]2O [testosterone]
no significant effects: effect on proliferative response to DT treatment [1] | effect on cell cycle response to DT treatment [2] | effect on apoptosis response to DT treatment [3]
